Laboratory results taken from US7893199B2, “Peptides having neutrophil-stimulating activity” (National University Corporation Gunma University, priority 2006, dated 2011).
Where no end group is shown, it is not given here.

What was measured:
[1] = test system: differentiated HL-60 cells; experiment: migration activity (Chemotaxis Index) of differentiated HL-60 cells; type: cell-based, human
Method: (3) Measurement of Migration Activity
The cells were collected by centrifuging the suspension of the differentiated HL-60 cells (1,000 rpm, 5 minutes, 4° C.). After that, the following operation was repeated three times to wash the cells: 10% FBS-RPMI1640 was added to the cells; the mixture was suspended by inversion; and the mixture was centrifuged again (1,000 rpm, 5 minutes, 4° C.). Then, a medium (10% FBS-RPMI1640) was added so that a cell density was 4×10^6 cells/ml, thereby a cell suspension was prepared. Subsequently, 1 ml of each peptide solution (dissolved in 10% FBS-RPMI 1640) was transferred to each well of a 24-well plate, and the plate was incubated at 37° C. for 20 minutes. After that, 500 μl of the cell suspension (2×10^6 cells) were put in Chemotaxicell (KURABO […] LTD., 3 μm) and the Chemotaxicell was set in a plate, followed by incubation in the presence of 5% CO2 at 37° C. for 1 hour. Then, the Chemotaxicell was removed and the solution in each well of the plate was pipetted. The cells migrated to the plate side was suspended well and the number of the cells were measured. Note that the migration activity by the peptide was represented by a ratio of the number of the cells to the number of the cells passing the Chemotaxicell at the time of non-stimulation (Chemotaxis Index, CI).

[2] = biological target: T1, bovine Gi1-G protein (Bos taurus, UniProt P63097); experiment: G protein activation ability (GTP hydrolysis) with purified Gi1; type: biochemical
T1 construct: made in house; host or cells: E. coli

[3] = biological target: T2, heat shock 70 kDa protein 8 isoform 1 (SEQ ID NO: 52) (Homo sapiens, UniProt P11142); experiment: chemical crosslinking experiment, streptavidin beads, electrophoresis (receptor identification); type: binding; details: differentiated HL-60 cells
T2 construct: endogenous in cells; host or cells: neutrophil-like differentiated HL-60 cells
Method: Then, in order to identify directly the receptor molecules to which these functional peptides are bound, the following chemical crosslinking experiment was performed. That is, the HL-60 cells differentiated into the neutrophil-like cells were suspended in HBHS (not containing 0.1% BSA). The suspension was centrifuged (1,000 rpm, 5 minutes, 4° C.) and the supernatant was removed. The cells were suspended again in the HBHS not containing BSA so as to have the cell density of 5.6×10^6 cells/ml. The obtained cell suspension was preincubated at 37° C. for 10 minutes at first, and 1/10 volume of mitocryptide-3 and -5, [Cys^0]mitocryptide-3, [Cys^0]mitocryptide-5, [Cys^24]mitocryptide-3, and peptides obtained by introducing biotin into the N terminals thereof (N-biotinyl-mitocryptide-3, N-biotinyl-mitocryptide-5, N-biotinyl-[Cys^0]mitocryptide-3, N-biotinyl-[Cys^0]mitocryptide-5, and N-biotinyl-[Cys^24]mitocryptide-3) were added to have the final concentration of 10 μM, followed by incubation at 37° C. for 30 minutes. After that, the cell suspension was centrifuged (5,000 rpm, 4° C., 1 minute) and the supernatant was removed. The resultant cells were resuspended in HBHS not containing BSA and centrifuged again to wash the cells. 1 ml of a buffer for dissolving cells (100 mM NaCl, 20 mM Tris-HCl, 1 mM EDTA, 77.5 mTIU/ml aprotinin, 1 μM leupeptin, 1 μg/ml pepstatin A, 1 μg/ml phosphoramidone, 1% CHAPS, pH 7.5) with respect to 1 ml of the original cell suspension was added to the cell precipitate, and the mixture was incubated at 4° C. for 30 minutes to dissolve the cells, thereby a cell lysate was prepared. The cell lysate was centrifuged (15,000 rpm, 4° C., 15 minutes) and the supernatant was centrifuged again in the same condition. The obtained supernatant was incubated with streptavidin beads at 4° C. for 30 minutes, then, the beads were washed by centrifugation with the buffer for dissolving cells three times. Further, the beads were treated by heat at 100° C. for 10 minutes in the buffer for dissolving cells, and the mixture was centrifuged. The obtained supernatant was subjected to an SDS gel electrophoresis to separate the contained protein. Then, the gel was stained by silver stain method, thereby the proteins were analyzed. […] As a result, two specific spots were detected (FIG. 15-A). Therefore, the protein was extracted and degraded with trypsin, and then, the degraded proteins were analyzed by mass spectrometry.

T2 sequence (P11142 whole entry, canonical isoform): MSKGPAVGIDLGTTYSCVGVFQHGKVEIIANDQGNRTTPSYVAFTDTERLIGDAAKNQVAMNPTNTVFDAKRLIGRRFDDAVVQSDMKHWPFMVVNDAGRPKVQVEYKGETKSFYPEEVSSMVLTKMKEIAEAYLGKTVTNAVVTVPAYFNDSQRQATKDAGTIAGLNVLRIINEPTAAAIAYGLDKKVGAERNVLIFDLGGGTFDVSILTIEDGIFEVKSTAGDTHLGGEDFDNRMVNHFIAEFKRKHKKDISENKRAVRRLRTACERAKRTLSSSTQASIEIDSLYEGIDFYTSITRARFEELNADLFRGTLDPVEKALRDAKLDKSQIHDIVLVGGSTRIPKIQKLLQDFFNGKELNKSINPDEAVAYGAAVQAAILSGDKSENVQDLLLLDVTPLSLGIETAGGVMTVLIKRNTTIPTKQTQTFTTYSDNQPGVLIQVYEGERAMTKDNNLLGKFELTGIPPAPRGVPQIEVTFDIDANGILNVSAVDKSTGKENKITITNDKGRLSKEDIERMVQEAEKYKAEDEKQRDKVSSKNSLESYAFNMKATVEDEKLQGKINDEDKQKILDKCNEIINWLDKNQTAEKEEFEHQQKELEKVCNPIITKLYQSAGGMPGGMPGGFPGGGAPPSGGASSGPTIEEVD
T1 sequence (P63097 whole entry): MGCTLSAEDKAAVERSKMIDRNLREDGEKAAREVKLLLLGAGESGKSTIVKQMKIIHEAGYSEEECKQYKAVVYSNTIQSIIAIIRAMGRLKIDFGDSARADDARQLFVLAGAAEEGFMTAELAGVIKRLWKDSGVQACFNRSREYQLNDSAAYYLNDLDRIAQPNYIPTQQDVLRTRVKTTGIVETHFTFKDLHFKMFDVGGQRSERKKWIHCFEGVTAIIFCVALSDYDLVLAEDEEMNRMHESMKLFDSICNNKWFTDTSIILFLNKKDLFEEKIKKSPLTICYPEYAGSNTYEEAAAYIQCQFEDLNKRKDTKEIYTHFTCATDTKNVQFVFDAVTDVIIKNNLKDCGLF

MLWNLLALHQIGQRTISTASHRH [No. 019] was tested, and the “concentration of migration activity compared with that of β-hexosaminidase-secreting activity” value [1] was “confirmed at the concentration lower than the concentration at which β-hexosaminidase-secreting activity was confirmed”, the “desensitization of migration activity with increasing concentration of the peptide” value [1] was “subjected to desensitization completely” and the “activation of purified Gi1 protein” value [2] was “activated”. The “competition for binding of the protein to N-biotinyl-[Cys^0]mitocryptide-5” value [3] was “competitive”.
